The test system of this data set is human EPAS1 (Hif2α) cDNA in psiCHECK2 (Renilla luciferase/EPAS1 fusion mRNA) in Hep3B cells. Nature of the data set: Efficacy screen of Hif2α RNAi triggers in vitro, dual-luciferase reporter assay (1 nM and 0.1 nM). As to conditions: Hep3B cells co-transfected with EPAS1-psiCHECK2, Renilla luciferase normalized to firefly luciferase. It is filed as cell-based. The text has this:
Candidate sequences were identified by in silico analysis and screened as chemically modified canonical siRNAs in vitro. For screening purposes, the human EPAS1 (Hif2α) cDNA sequence (accession #NM 001430) was synthesized and cloned (DNA 2.0, Menlo Park, Calif.) into a commercially-available reporter-based screening plasmid, psiCHECK2 (Promega, Madison, Wis.) which generated a Renilla luciferase/EPAS1 fusion mRNA. For RNAi trigger efficacy evaluation, Hep3B cells, a human hepatocellular carcinoma line, were plated at 10,000 cells per well in 96-well format. Each of the 187 EPAS1 RNAi triggers, in two subsets, was co-transfected at two concentrations, 1 nM and 0.1 nM, with 25 ng EPAS1-psiCHECK2 plasmid DNA per well and 0.2 μL LipoFectamine 2000 (Life Technologies) per well. Gene knockdown was determined by measuring Renilla luciferase levels normalized to the levels of constitutively-expressed firefly luciferase, also present on the psiCHECK-2 plasmid, using the Dual Luciferase Reporter Assay (Promega, Madison, Wis.) Table 5.
(In general: In a reporter assay the amount or activity of a reporter protein is the signal.)

Strand notation (5' to 3'): a small letter for the sugar, then the base; units joined by * are phosphorothioate-linked, units joined directly phosphodiester-linked; [ ] holds rarer units or linkages, { } end groups; capitals alone tell only the bases. d = 2'-deoxy (DNA); m = 2'-O-methyl; f = 2'-fluoro

Turning to “2352 (sense fAmUfCmUfGmUfGmAfUmAfUmGfCmCfAmUfAmGfAdT; antisense dTfCmUfAmUfGmGfCmAfUmAfUmCfAmCfAmGfAmUdT*dT; siRNA) [compound 2352]”, the “Relative Rluc-Hif2α” value runs as follows: (0.1 nM RNAi trigger) 1.012 ± 0.048; (1 nM RNAi trigger) 0.749 ± 0.049.

As for “2412 (sense fUmCfCmUfAmCfUmGfAmCfAmAfCmAfUmUfAmUfAdT; antisense dTfAmUfAmAfUmGfUmUfGmUfCmAfGmUfAmGfGmAdT*dT; siRNA) [compound 2412]”, the “Relative Rluc-Hif2α” value (0.1 nM RNAi trigger) was 0.515 ± 0.037 and the “Relative Rluc-Hif2α” value (1 nM RNAi trigger) is listed as 0.291 ± 0.014.

In the case of “2324 (sense fGmGfAmCfUmAfCmAfGmCfCmUfGmUfCmGfUmCfAdT; antisense dTfGmAfCmGfAmCfAmGfGmCfUmGfUmAfGmUfCmCdT*dT; siRNA) [compound 2324]”, the “Relative Rluc-Hif2α” value (0.1 nM RNAi trigger) stood at 1.081 ± 0.293 and the “Relative Rluc-Hif2α” value (1 nM RNAi trigger) was determined as 1.046 ± 0.208.

As to “2320 (sense fUmUfUmGfAmUfGmCfCmGfGmAfCmAfAmGfCmCfAdT; antisense dTfGmGfCmUfUmGfUmCfCmGfGmCfAmUfCmAfAmAdT*dT; siRNA) [compound 2320]”, the “Relative Rluc-Hif2α” value (0.1 nM RNAi trigger) was determined as 0.770 ± 0.312 and the “Relative Rluc-Hif2α” value (1 nM RNAi trigger) was determined as 0.486 ± 0.059.

Consider “2295 (sense fAmCfGmCfCmCfAmAfUmAfGmCfCmCfUmGfAmAfAdT; antisense dTfUmUfCmAfGmGfGmCfUmAfUmUfGmGfGmCfGmUdT*dT; siRNA) [compound 2295]”, for which the “Relative Rluc-Hif2α” value is, setting by setting: (0.1 nM RNAi trigger) 1.047 ± 0.184; (1 nM RNAi trigger) 0.863 ± 0.122.

With “2373 (sense fGmAfGmCfUmAfUmGfUmGfAmCfUmCfGmGfAmUfAdT; antisense dTfAmUfCmCfGmAfGmUfCmAfCmAfUmAfGmCfUmCdT*dT; siRNA) [compound 2373]”, the “Relative Rluc-Hif2α” value runs as follows: (0.1 nM RNAi trigger) 0.369 ± 0.082; (1 nM RNAi trigger) 0.162 ± 0.032.

For “2299 (sense fAmGfUmAfCmCfCmAfGmAfCmGfGmAfUmUfUmCfAdT; antisense dTfGmAfAmAfUmCfCmGfUmCfUmGfGmGfUmAfCmUdT*dT; siRNA) [compound 2299]”, the “Relative Rluc-Hif2α” value is on record as 0.907 ± 0.171 (0.1 nM RNAi trigger) and 0.827 ± 0.067 (1 nM RNAi trigger).

In the case of “2366 (sense fGmGfCmAfCmGfUmUfGmUfGmGfGmGfUmCfGmGfAdT; antisense dTfCmCfGmAfCmCfCmCfAmCfAmAfCmGfUmGfCmCdT*dT; siRNA) [compound 2366]”, the “Relative Rluc-Hif2α” value is on record as 0.879 ± 0.223 (0.1 nM RNAi trigger) and 0.695 ± 0.115 (1 nM RNAi trigger).

As for “2252 (sense fGmAfGmAfUmUfCmGfUmGfAmGfAmAfCmCfUmGfAdT; antisense dTfCmAfGmGfUmUfCmUfCmAfCmGfAmAfUmCfUmCdT*dT; siRNA) [compound 2252]”, the “Relative Rluc-Hif2α” value runs as follows: (0.1 nM RNAi trigger) 0.696 ± 0.096; (1 nM RNAi trigger) 0.592 ± 0.061.

“2296 (sense fCmAfUmCfUmUfUmGfGmAfUmAfAmCfGmAfCmCfAdT; antisense dTfGmGfUmCfGmUfUmAfUmCfCmAfAmAfGmAfUmGdT*dT; siRNA) [compound 2296]”: the “Relative Rluc-Hif2α” value by setting is: (0.1 nM RNAi trigger) 0.411 ± 0.079; (1 nM RNAi trigger) 0.213 ± 0.028.

Take “2355 (sense fCmAfUmAfGmGfUmGfUmGfAmCfAmAfUmCfCmGfAdT; antisense dTfCmGfGmAfUmUfGmUfCmAfCmAfCmCfUmAfUmGdT*dT; siRNA) [compound 2355]”: the “Relative Rluc-Hif2α” value (0.1 nM RNAi trigger) came to 0.457 ± 0.066 and the “Relative Rluc-Hif2α” value (1 nM RNAi trigger) turned out to be 0.248 ± 0.063.

“2281 (sense fUmGfCmUfCmGfCmAfAmAfGmCfAmUfGmGfGmGfAdT; antisense dTfCmCfCmCfAmUfGmCfUmUfUmGfCmGfAmGfCmAdT*dT; siRNA) [compound 2281]”: the “Relative Rluc-Hif2α” value was 0.914 ± 0.177 (0.1 nM RNAi trigger) and 0.651 ± 0.041 (1 nM RNAi trigger).

“2363 (sense fUmAfUmUfGmCfUmGfCmCfAmAfGmAfGmGfGmUfAdT; antisense dTfAmCfCmCfUmCfUmUfGmGfCmAfGmCfAmAfUmAdT*dT; siRNA) [compound 2363]”: the “Relative Rluc-Hif2α” value runs as follows: (0.1 nM RNAi trigger) 0.653 ± 0.199; (1 nM RNAi trigger) 0.452 ± 0.091.

For “2379 (sense fUmAfCmCfAmUfGmAfGmAfUmGfGmUfUmUfAmGfAdT; antisense dTfCmUfAmAfAmCfCmAfUmCfUmCfAmUfGmGfUmAdT*dT; siRNA) [compound 2379]”, the “Relative Rluc-Hif2α” value is reported as 0.858 ± 0.098 (0.1 nM RNAi trigger) and 0.939 ± 0.204 (1 nM RNAi trigger).

For “2294 (sense fGmCfUmCfCmAfCmGfCmCfCmAfAmUfAmGfCmCfAdT; antisense dTfGmGfCmUfAmUfUmGfGmGfCmGfUmGfGmAfGmCdT*dT; siRNA) [compound 2294]”, the “Relative Rluc-Hif2α” value (0.1 nM RNAi trigger) was determined as 0.743 ± 0.100 and the “Relative Rluc-Hif2α” value (1 nM RNAi trigger) came to 0.546 ± 0.033.

For the substance “2312 (sense fCmAfCmAfAmAfGmUfGmGfGmCfCmGfUmCfGmGfAdT; antisense dTfCmCfGmAfCmGfGmCfCmCfAmCfUmUfUmGfUmGdT*dT; siRNA) [compound 2312]”, the “Relative Rluc-Hif2α” value runs as follows: (0.1 nM RNAi trigger) 0.899 ± 0.124; (1 nM RNAi trigger) 0.725 ± 0.173.

For “2367 (sense fGmCfAmCfGmUfUmGfUmGfGmGfGmUfCmGfGmGfAdT; antisense dTfCmCfCmGfAmCfCmCfCmAfCmAfAmCfGmUfGmCdT*dT; siRNA) [compound 2367]”, the “Relative Rluc-Hif2α” value is reported as 0.665 ± 0.064 (0.1 nM RNAi trigger) and 0.376 ± 0.039 (1 nM RNAi trigger).

With “2364 (sense fGmGfUmCfUmGfAmUfGmGfCmAfCmGfUmUfGmUfAdT; antisense dTfAmCfAmAfCmGfUmGfCmCfAmUfCmAfGmAfCmCdT*dT; siRNA) [compound 2364]”, the “Relative Rluc-Hif2α” value (0.1 nM RNAi trigger) was 1.070 ± 0.042 and the “Relative Rluc-Hif2α” value (1 nM RNAi trigger) was determined as 0.855 ± 0.282.

With “2351 (sense fGmUfCmGfGmCfUmUfUmUfUmGfCmCfAmUfCmUfAdT; antisense dTfAmGfAmUfGmGfCmAfAmAfAmAfGmCfCmGfAmCdT*dT; siRNA) [compound 2351]”, the “Relative Rluc-Hif2α” value is, setting by setting: (0.1 nM RNAi trigger) 1.216 ± 0.415; (1 nM RNAi trigger) 1.306 ± 0.216.

For “2311 (sense fCmCfAmCfAmAfAmGfUmGfGmGfCmCfGmUfCmGfAdT; antisense dTfCmGfAmCfGmGfCmCfCmAfCmUfUmUfGmUfGmGdT*dT; siRNA) [compound 2311]”, the “Relative Rluc-Hif2α” value runs as follows: (0.1 nM RNAi trigger) 0.888 ± 0.051; (1 nM RNAi trigger) 0.841 ± 0.130.

With “2256 (sense fGmCfGmGfGmAfCmUfUmCfUmUfCmAfUmGfAmGfAdT; antisense dTfCmUfCmAfUmGfAmAfGmAfAmGfUmCfCmCfGmCdT*dT; siRNA) [compound 2256]”, the “Relative Rluc-Hif2α” value (0.1 nM RNAi trigger) worked out at 0.796 ± 0.028 and the “Relative Rluc-Hif2α” value (1 nM RNAi trigger) was determined as 0.765 ± 0.124.

As to “2386 (sense fUmUfCmAfAmUfAmCfCmAfAmUfUmAfCmAfUmGfAdT; antisense dTfCmAfUmGfUmAfAmUfUmGfGmUfAmUfUmGfAmAdT*dT; siRNA) [compound 2386]”, the “Relative Rluc-Hif2α” value is reported as 0.603 ± 0.032 (0.1 nM RNAi trigger) and 0.274 ± 0.087 (1 nM RNAi trigger).

As to “2267 (sense fUmUfGmGfCmCfGmCfUmCfAmGfCmCfUmAfUmGfAdT; antisense dTfCmAfUmAfGmGfCmUfGmAfGmCfGmGfCmCfAmAdT*dT; siRNA) [compound 2267]”, the “Relative Rluc-Hif2α” value is listed as 1.029 ± 0.104 (0.1 nM RNAi trigger) and 0.651 ± 0.049 (1 nM RNAi trigger).

Take “2323 (sense fAmCfAmAfGmCfCmAfCmUfGmAfGmCfGmCfAmAfAdT; antisense dTfUmUfGmCfGmCfUmCfAmGfUmGfGmCfUmUfGmUdT*dT; siRNA) [compound 2323]”: the “Relative Rluc-Hif2α” value reads like this: (0.1 nM RNAi trigger) 0.631 ± 0.085; (1 nM RNAi trigger) 0.664 ± 0.166.

Regarding “2314 (sense fAmAfAmGfGmGfUmUfUmUfGmGfGmGfCmUfCmGfAdT; antisense dTfCmGfAmGfCmCfCmCfAmAfAmAfCmCfCmUfUmUdT*dT; siRNA) [compound 2314]”, the “Relative Rluc-Hif2α” value came to 0.692 ± 0.141 (0.1 nM RNAi trigger) and 0.920 ± 0.150 (1 nM RNAi trigger).

With “2254 (sense fUmCfGmUfGmAfGmAfAmCfCmUfGmAfGmUfCmUfAdT; antisense dTfAmGfAmCfUmCfAmGfGmUfUmCfUmCfAmCfGmAdT*dT; siRNA) [compound 2254]”, the “Relative Rluc-Hif2α” value is, setting by setting: (0.1 nM RNAi trigger) 0.756 ± 0.080; (1 nM RNAi trigger) 0.641 ± 0.054.

With “2417 (sense fAmAfGmUfAmUfUmCfUmGfAmUfCmCfUmAfCmCfAdT; antisense dTfGmGfUmAfGmGfAmUfCmAfGmAfAmUfAmCfUmUdT*dT; siRNA) [compound 2417]”, the “Relative Rluc-Hif2α” value is, setting by setting: (0.1 nM RNAi trigger) 0.295 ± 0.057; (1 nM RNAi trigger) 0.253 ± 0.037.

Consider “2268 (sense fUmAfUmGfAmAfUmUfCmUfAmCfCmAfUmGfCmGfAdT; antisense dTfCmGfCmAfUmGfGmUfAmGfAmAfUmUfCmAfUmAdT*dT; siRNA) [compound 2268]”, for which the “Relative Rluc-Hif2α” value reads like this: (0.1 nM RNAi trigger) 0.409 ± 0.023; (1 nM RNAi trigger) 0.210 ± 0.037.

As to “2242 (sense fGmGfGmUfUmUfCmAfUmUfGmCfCmGfUmGfGmUfAdT; antisense dTfAmCfCmAfCmGfGmCfAmAfUmGfAmAfAmCfCmCdT*dT; siRNA) [compound 2242]”, the “Relative Rluc-Hif2α” value reads like this: (0.1 nM RNAi trigger) 0.411 ± 0.019; (1 nM RNAi trigger) 0.222 ± 0.064.

Regarding “2292 (sense fCmUfGmCfUmCfCmAfCmGfCmCfCmAfAmUfAmGfAdT; antisense dTfCmUfAmUfUmGfGmGfCmGfUmGfGmAfGmCfAmGdT*dT; siRNA) [compound 2292]”, the “Relative Rluc-Hif2α” value was 1.135 ± 0.048 (0.1 nM RNAi trigger) and 0.832 ± 0.000 (1 nM RNAi trigger).

Source of the values: patent US9976141B2, “Compositions and methods for inhibiting gene expression of Hif2alpha” (Arrowhead Madison Inc., priority 2015, dated 2018).
